Each structure is given as a SMILES string.

Type in all cases: in vivo, patients
Series [1] deals with advanced colorectal cancer. The series can be described thus: Retrospective analysis of OPTIMOX1: effect of oxaliplatin reintroduction on overall survival (Cox model, centers grouped by reintroduction class). The protocol: A retrospective analysis was used to evaluate the effect of oxaliplatin reintroduction on overall survival. The percentage of patients with oxaliplatin reintroduction was calculated in each center regardless of treatment arm, number of patients, or whether reintroduction was per protocol. A Cox model was used to analyze the impact of oxaliplatin reintroduction on survival, after adjustment for all baseline covariates, and using random effects to account for the fact that the percentage of patients with oxaliplatin reintroduction was estimated in each center. Centers were grouped by percentage of oxaliplatin reintroduction into 4 reintroduction classes defined according to the percentage of patients with oxaliplatin reintroduction (0, 1-20, 21-40, and >40). The hazard ratio (HR; adjusted for all baseline covariates) was calculated for each reintroduction class, using centers with no reintroduction (0%) as the reference group.

The test system of series [2] is advanced colorectal cancer. The series can be described thus: OPTIMOX1 study: FOLFOX4 until progression (arm A) versus stop-and-go FOLFOX7 (arm B). Particulars: OPTIMOX1, previously untreated advanced colorectal cancer. The protocol:
The OPTIMOX1 study examined the effect of oxaliplatin reintroduction in previously untreated patients with advanced colorectal cancer. The details of this study have been recently published by Tournigand et al., J. Clin. Oncol. (January 2006);24:394, and they are incorporated herein by reference. Two different FOLFOX regimens were used in the study: FOLFOX4 and FOLFOX7. The FOLFOX4 regimen comprises oxaliplatin 85 mg/m^2 given as a 2-hour infusion on day 1, leucovorin 200 mg/m^2 given as a 2-hour infusion on days 1 and 2, and 5-FU given on days 1 and 2 as a bolus of 400 mg/m^2 that is followed directly by a 22-hour infusion of 5-FU 600 mg/m^2 on each day. The oxaliplatin infusion on day 1 is given concurrently with leucovorin, and on each day the 5-FU bolus directly follows the 2-hour infusion of leucovorin. FOLFOX7 comprises oxaliplatin 130 mg/m^2 and leucovorin 200 mg/m^2 given concurrently as 2-hour infusions on day 1, followed directly by a 46 hour infusion of 5-FU at 2400 mg/m^2. In some patients, the I-leucovorin isomer was used, but at half the mg/m^2 dosage for dI-leucovorin.
Patients were randomized to either FOLFOX4 every 2 weeks until progression (arm A), or FOLFOX7 for 6 cycles, maintenance with leucovorin-5-FU but without oxaliplatin for 12 […], and reintroduction of FOLFOX7 (arm B). […]

Series [3] can be described thus: OPTIMOX1 study: neurotoxicity. The settings on record: stopping oxaliplatin after the sixth cycle. The text has this: Sensory neurotoxicity can be measured using known techniques and graded using defined criteria. For example, the National Cancer Institute Common Toxicity Criteria (NCI CTC) version 2.0 can be used to grade sensory neuropathy. Using these criteria, an NCI grade of 0 means that there is no change associated with the treatment. NCI grade 1 indicates the loss of deep tendon reflexes or paresthesia (including tingling) not interfering with function. […] NCI Grade 3 indicates sensory loss or paresthesia that interferes with activities of daily living. NCI Grade 4 is reserved for permanent sensory loss that interferes with function.
The OPTIMOX1 study examined the effect of oxaliplatin reintroduction in previously untreated patients with advanced colorectal cancer. The details of this study have been recently published by Tournigand et al., J. Clin. Oncol. (January 2006);24:394, and they are incorporated herein by reference. Two different FOLFOX regimens were used in the study: FOLFOX4 and FOLFOX7. The FOLFOX4 regimen comprises oxaliplatin 85 mg/m^2 given as a 2-hour infusion on day 1, leucovorin 200 mg/m^2 given as a 2-hour infusion on days 1 and 2, and 5-FU given on days 1 and 2 as a bolus of 400 mg/m^2 that is followed directly by a 22-hour infusion of 5-FU 600 mg/m^2 on each day. […]

Consider `O=C1[O][Pt]2([NH][C@@H]3CCCC[C@H]3[NH]2)[O]C1=O` [oxaliplatin], for which the Median survival in series [1] (>40% reintroduction class) is given as 23 months; in series [1] (reference group (0% reintroduction)) it was 15 months. The “impact of percentage of patients with oxaliplatin reintroduction on survival” value in series [1] (after adjustment for all other factors, p<0.001) is on record as “highly significant impact on survival”. The “impact of reintroduction class on survival” value in series [1] (after adjustment for all other factors, p=0.02) is “significant impact on survival”. The “Adjusted survival hazard ratio (95% C.I.)” value in series [1] (centers with 0% patients with oxaliplatin reintroduction (reference group)) is recorded as 1.00 (reference); in series [1] (centers with 1–20% patients with oxaliplatin reintroduction, versus 0% reference), 0.91 (0.56–1.48); in series [1] (centers with 21–40% patients with oxaliplatin reintroduction, versus 0% reference) it was 0.78 (0.50–1.21); in series [1] (centers with >40% patients with oxaliplatin reintroduction, versus 0% reference), 0.59 (0.38–0.91). Moreover, the “prognostic value of oxaliplatin reintroduction for overall survival” value in series [2] is recorded as “independent prognostic factor for improved overall survival”. The “risk of grade 3 or 4 neurotoxicity” value in series [3] is “reduced risk”.

The record behind these values is US20080085881A1, “Stop-and-go oxaliplatin treatment regimens” (priority 2006, published 2008).
